Data reported in patent publication US11008331B2, “Hepatitis B virus surface antigen inhibitor” (FUJIAN COSUNTER PHARMACEUTICAL CO., LTD., priority 2017, dated 2021).
Where two headings read alike, the source gives them in different places.

Columns and labels:
HBV DNA = experiment: HBV in vitro test: HBV DNA in HepG2.2.15 culture supernatant by real time-qPCR; format: cell-based, Hepatitis B Virus (HBV)
Method: (§1) The content of HBV DNA in HepG2. 2. 15 cell culture supernatant was detected by a real-time quantitative qPCR assay (real time-qPCR), and the content of HBV surface antigen was detected by enzyme-linked immunosorbent assay (ELISA), the compound EC50 value was used as an index to evaluate the inhibitory effect of the compound on HBV.
(§2) 3.1. HepG2. 2. 15 cells (4×10^4 cells/well) was plated into a 96-well plate and cultured overnight at 37° C., 5% CO2.
(§3) 3.2. The next day, the compound was diluted to 8 concentrations, 3-folds gradients dilution. The compound of different gradients were added into the culture well, double duplicated the wells. The final concentration of the DMSO was 0.5% in the culture solution. 10 μM ETV was used as 100% inhibition control; 0.5% of DMSO was used as 0% inhibition control.
(§4) 3.3. On the fifth day, the culture solution was replaced by fresh culture solution containing the compound.
(§5) 3.4. On the eighth day, the culture solution in the culture well was collected, and the content of hepatitis B virus S antigen was measured by ELISA with partial samples; and still partial samples was taken for extraction of DNA using high-throughput DNA purification kit (Qiagen-51162).
3.6. 15 μL reaction mixture was added into each well of the 96-well PCR plate, then in each well was added 10 μL sample DNA or standard product of HBV DNA.
3.7. The qPCR plate was sealed with optical sealing film, centrifuged at 1500 rpm for 2 minutes, and then the HBV copy number of each sample was quantitatively detected by fluorescence quantitative qPCR. The operation procedure of qPCR is as follows
Calculation of the Inhibition Percentage % Inh.=(1−value in the sample/DMSO control group value)×100%.
The dose-response curves was fitted by GraphPad Prism software, and the 50% inhibited concentration EC50 value of the compound against HBV was calculated.

[1] = system: HBV surface antigen (HBsAg); experiment: HBV in vitro test: HBV surface antigen in HepG2.2.15 culture supernatant by ELISA; format: cell-based, Hepatitis B Virus (HBV)
Method: as §1, §2, §3, §4, §5
3.9. Content determination of hepatitis B virus S antigen measured by ELISA
50 μL sample and standard sample were taken and added into the reaction plate respectively, then 50 μL enzyme conjugate was added into each of the wells, shaked to mix well, then kept in warm bath at 37° C. for 60 min, and the plate was washed with cleansing solution for 5 times, 50 μL luminescent substrate was added into each wells, mixed well and reacted at r.t. for 10 min in the dark, the chemiluminescence intensity was finally detected with ELISA. The inhibition percentage of each compound was calculated by the following formula: inhibition rate (%)=(1−value in sample/DMSO control group value)×100%. The dose-response curves was fitted by GraphPad Prism software, and the 50% inhibited concentration EC50 value of the compound against HBV was calculated.

[2] = Hepatitis B virus, HepG2.2.15, HepG2. 2. 15 cell culture supernatant, collected on the eighth day, real time-qPCR, read-out: HBV-DNA experimental results EC50
[3] = Hepatitis B virus, HepG2.2.15, read-out: HBsAg experimental results EC50
[4] = Hepatitis B virus, HepG2.2.15, read-out: HBV-DNA experimental results EC50

SMILES | EC50 (HBV DNA; [2]) | EC50 [1, 3] | EC50 (HBV DNA; [4]) | EC50 (HBV DNA; HepG2. 2. 15 cell culture supernatant, collected on the eighth day, real time-qPCR, read-out: HBV-DNA experimental results EC50) | EC50 ([1]; HepG2. 2. 15 cell culture supernatant, collected on the eighth day, ELISA, read-out: HBsAg experimental results EC50)
COc1cc2c(cc1Cl)-c1cc(=O)c(C(=O)O)cn1C(c1ccccc1)O2 (stereo not drawn) [Embodiment 1] | 0.0118 µM | 0.0276 µM | – | – | –
CC(C)(CO)COc1cc2c(cc1Cl)-c1cc(=O)c(C(=O)O)cn1C(c1ccccc1)O2 (stereo not drawn) [Embodiment 2] | 0.0345 µM | 0.0558 µM | – | – | –
COCCOc1cc2c(cc1Cl)-c1cc(=O)c(C(=O)O)cn1C(c1ccccc1)O2 (stereo not drawn) [Embodiment 3] | 0.0276 µM | 0.0476 µM | – | – | –
O=C(O)c1cn2c(cc1=O)-c1cc(Cl)c(OCC(F)F)cc1OC2c1ccccc1 (stereo not drawn) [Embodiment 4] | 0.015 µM | 0.0319 µM | – | – | –
O=C(O)c1cn2c(cc1=O)-c1cc(Cl)c(OCCN3CCOCC3)cc1OC2c1ccccc1 (stereo not drawn) [Embodiment 5] | 0.0151 µM | 0.05 µM | – | – | –
O=C(O)c1cn2c(cc1=O)-c1cc(Cl)c(OCCCO)cc1OC2c1ccccc1 (stereo not drawn) [Embodiment 6] | 0.00604 µM | 0.0203 µM | – | – | –
O=C(O)c1cn2c(cc1=O)-c1cc(Cl)c(OCCO)cc1OC2c1ccccc1 (stereo not drawn) [Embodiment 7] | 0.211 µM | 0.299 µM | – | – | –
O=C(O)c1cn2c(cc1=O)-c1cc(Cl)c(OCCCCCO)cc1OC2c1ccccc1 (stereo not drawn) [Embodiment 8] | 0.0208 µM | 0.0662 µM | – | – | –
C#CCOc1cc2c(cc1Cl)-c1cc(=O)c(C(=O)O)cn1C(c1ccccc1)O2 (stereo not drawn) [Embodiment 9] | 0.0741 µM | 0.138 µM | – | – | –
O=C(O)c1cn2c(cc1=O)-c1cc(Cl)c(OCC(F)(F)CO)cc1OC2c1ccccc1 (stereo not drawn) [Embodiment 10] | 0.051 µM | 0.102 µM | – | – | –
CS(=O)(=O)CCCOc1cc2c(cc1Cl)-c1cc(=O)c(C(=O)O)cn1C(c1ccccc1)O2 (stereo not drawn) [Embodiment 11] | 0.0408 µM | 0.0739 µM | – | – | –
O=C(O)c1cn2c(cc1=O)-c1cc(Cl)c(OCCCN3CCCC3=O)cc1OC2c1ccccc1 (stereo not drawn) [Embodiment 12] | 0.0781 µM | 0.213 µM | – | – | –
COCCCOc1cc2c(cc1Cl)-c1cc(=O)c(C(=O)O)cn1C(c1nccs1)O2 (stereo not drawn) [Embodiment 14] | – | 0.00688 µM | 0.00688 µM | – | –
COCCCOc1cc2c(cc1Cl)-c1cc(=O)c(C(=O)O)cn1C(c1ccccc1Cl)O2 (stereo not drawn) [Embodiment 15] | 0.0082 µM | – | – | – | –
COCCCOc1cc2c(cc1Cl)-c1cc(=O)c(C(=O)O)cn1C(c1cccc(Cl)c1)O2 (stereo not drawn) [Embodiment 16] | – | 0.0453 µM | 0.0453 µM | – | –
COCCCOc1cc2c(cc1Cl)-c1cc(=O)c(C(=O)O)cn1C(c1ccc(Cl)cc1)O2 (stereo not drawn) [Embodiment 17] | – | 0.254 µM | 0.254 µM | – | –
COCCCOc1cc2c(cc1Cl)-c1cc(=O)c(C(=O)O)cn1C(c1ccc(F)cc1)O2 (stereo not drawn) [Embodiment 18] | 0.0408 µM | 0.0737 µM | – | – | –
COCCCOc1cc2c(cc1Cl)-c1cc(=O)c(C(=O)O)cn1C(c1ccccc1F)O2 (stereo not drawn) [Embodiment 19] | 0.00388 µM | 0.0209 µM | – | – | –
COCCCOc1cc2c(cc1Cl)-c1cc(=O)c(C(=O)O)cn1C(c1cccc(F)c1)O2 (stereo not drawn) [Embodiment 20] | 0.011 µM | 0.0225 µM | – | – | –
COCCCOc1cc2c(cc1Cl)-c1cc(=O)c(C(=O)O)cn1C(c1ccccc1C)O2 (stereo not drawn) [Embodiment 21] | 0.00712 µM | 0.0163 µM | – | – | –
COCCCOc1cc2c(cc1Cl)-c1cc(=O)c(C(=O)O)cn1C(c1cccc(C)c1)O2 (stereo not drawn) [Embodiment 22] | 0.0206 µM | 0.0382 µM | – | – | –

SMILES | EC50 (HBV DNA; [2]) | EC50 [1, 3] | EC50 (HBV DNA; [4]) | EC50 (HBV DNA; HepG2. 2. 15 cell culture supernatant, collected on the eighth day, real time-qPCR, read-out: HBV-DNA experimental results EC50) | EC50 ([1]; HepG2. 2. 15 cell culture supernatant, collected on the eighth day, ELISA, read-out: HBsAg experimental results EC50)
COCCCOc1cc2c(cc1Cl)-c1cc(=O)c(C(=O)O)cn1C(c1ccc(C)cc1)O2 (stereo not drawn) [Embodiment 23] | 0.0859 µM | 0.127 µM | – | – | –
COCCCOc1cc2c(cc1Cl)-c1cc(=O)c(C(=O)O)cn1C(c1cc(F)cc(OC)c1)O2 (stereo not drawn) [Embodiment 24] | 0.0593 µM | 0.0355 µM | – | – | –
COCCCOc1cc2c(cc1Cl)-c1cc(=O)c(C(=O)O)cn1C(c1cc(F)ccc1OC)O2 (stereo not drawn) [Embodiment 25] | 0.0187 µM | 0.0359 µM | – | – | –
COCCCOc1cc2c(cc1Cl)-c1cc(=O)c(C(=O)O)cn1C(c1cc(OC)ccc1F)O2 (stereo not drawn) [Embodiment 26] | 0.152 µM | 0.101 µM | – | – | –
COCCCOc1cc2c(cc1Cl)-c1cc(=O)c(C(=O)O)cn1C(c1c(F)cccc1Cl)O2 (stereo not drawn) [Embodiment 27] | 0.0236 µM | 0.0391 µM | – | – | –
COCCCOc1cc2c(cc1Cl)-c1cc(=O)c(C(=O)O)cn1C(c1nc(C)c(C)s1)O2 (stereo not drawn) [Embodiment 28] | 0.278 µM | 0.152 µM | – | – | –
COCCCOc1cc2c(cc1Cl)-c1cc(=O)c(C(=O)O)cn1C(c1c(F)cccc1F)O2 (stereo not drawn) [Embodiment 29] | 0.00411 µM | 0.0122 µM | – | – | –
COCCCOc1cc2c(cc1Cl)-c1cc(=O)c(C(=O)O)cn1C(c1cc(F)cc(F)c1)O2 (stereo not drawn) [Embodiment 30] | 0.0185 µM | 0.0282 µM | – | – | –
COCCCOc1cc2c(cc1Cl)-c1cc(=O)c(C(=O)O)cn1C(c1cccc(F)c1F)O2 (stereo not drawn) [Embodiment 31] | 0.0905 µM | 0.203 µM | – | – | –
COCCCOc1cc2c(cc1Cl)-c1cc(=O)c(C(=O)O)cn1C(c1cc(F)ccc1F)O2 (stereo not drawn) [Embodiment 32] | 0.0352 µM | 0.0711 µM | – | – | –
COCCCOc1cc2c(cc1Cl)-c1cc(=O)c(C(=O)O)cn1C(c1ccc(F)cc1F)O2 (stereo not drawn) [Embodiment 33] | 0.0126 µM | 0.0103 µM | – | – | –
COCCCOc1cc2c(cc1Cl)-c1cc(=O)c(C(=O)O)cn1C(c1ccc(OC)cc1F)O2 (stereo not drawn) [Embodiment 34] | 0.0213 µM | 0.0296 µM | – | – | –
COCCCOc1cc2c(cc1Cl)-c1cc(=O)c(C(=O)O)cn1C(c1cnsc1C)O2 (stereo not drawn) [Embodiment 35] | – | – | – | 0.0251 µM | 0.011 µM
COCCCOc1cc2c(cc1Cl)-c1cc(=O)c(C(=O)O)cn1C(c1cnsc1)O2 (stereo not drawn) [Embodiment 37] | 0.0106 µM | 0.0266 µM | – | – | –
COCCCOc1cc2c(cc1Cl)-c1cc(=O)c(C(=O)O)cn1C(c1cncs1)O2 (stereo not drawn) [Embodiment 38] | 0.0204 µM | 0.0123 µM | – | – | –
COCCCOc1cc2c(cc1Cl)-c1cc(=O)c(C(=O)O)cn1C(c1ncc(C)s1)O2 (stereo not drawn) [Embodiment 41] | 0.0178 µM | 0.058 µM | – | – | –
Cc1csc(C2Oc3cc(OCC4CC4)c(Cl)cc3-c3cc(=O)c(C(=O)O)cn32)n1 (stereo not drawn) [Embodiment 42] | 0.00219 µM | 0.00788 µM | – | – | –
COCCCOc1cc2c(cc1OC)-c1cc(=O)c(C(=O)O)cn1C(c1cscn1)O2 (stereo not drawn) [Embodiment 43] | 0.0194 µM | 0.0154 µM | – | – | –
O=C(O)c1cn2c(cc1=O)-c1cc(Cl)c(OCC3CC3)cc1OC2c1ncc(Cl)s1 (stereo not drawn) [Embodiment 44] | 0.129 µM | 0.212 µM | – | – | –
COCCCOc1cc2c(cc1Cl)-c1cc(=O)c(C(=O)O)cn1C(c1csc(Cl)c1Cl)O2 (stereo not drawn) [Embodiment 48] | > 1 µM | 0.103 µM | – | – | –
